Measurements published in article PMC9791135, “A penetratin-derived peptide reduces the membrane permeabilization and cell toxicity of α-synuclein oligomers” (The Journal of Biological Chemistry, 2022).
Where a SMILES comes first, the peptide text is derived from it.

What was measured:
SH-SY5Y cells [1] = test: MTT cell viability assay, substance alone; conditions: for Cell viability (MTT): SH-SY5Y cells, 35 μg/ml peptide alone, 24 h
Description: (§1) The effect of the peptides on αSOs toxicity in SH-SY5Y cells using 3-(4, 5-dimethylthiazol-2-yl)-2,5-diphenyltetrazolium bromide (MTT) cell viability assay was also tested to complement our calcein data.
(§2) We used the MTT assay to measure cell viability after 24 h treatment with αSOs in the presence of peptides. SH-SY5Y cells were seeded in 96-well plates at a density of 5 × 10^4 cell/ml in Dulbecco's modified Eagle's medium supplemented with 10% FBS, 100 unit/ml penicillin, and […]. The cells were incubated in a humidified atmosphere incubator with 5% CO2 and 95% humidity at 37 °C for 24 h. The culture medium was then replaced with fresh medium containing 10 μM αSOs with peptides and incubated for another 24 h. Then the cell medium was replaced with a fresh medium containing 20% MTT (5 mg/ml), and the cells were incubated for an additional 4 h at 37 °C. Then 100 μl of dimethyl sulfoxide was added to dissolve formazan crystals by incubating for 30 min on a shaker at RT. Consequently, absorbance was measured by using a plate reader at 570 nm.

α-syn = molecular target: T1, α-syn (Homo sapiens, UniProt P37840); test: ThT fluorescence assay of unseeded α-syn fibrillation in the presence of peptides; type: biochemical; conditions: 1 mg/ml α-syn, 0–0.5 mg/ml peptide, 48 h; for ThT signal end level: unseeded ThT, 37 °C, versus α-syn alone
T1 construct: made in house; host or cells: Escherichia coli BL21 (DE3), plasmid pET11-D
Description: (§3) To test the effects of these selected nine peptides on the aggregation of α-syn, we performed a thioflavin T (ThT) fluorescence assay in the presence of 1 mg/ml α-syn and 0 to 0.5 mg/ml peptide for 48 h (raw data in Fig. S3). Furthermore, the peptides alone were monitored for self-fibrillation. […] High concentrations of p222, p194, and p249 led to a decline in ThT fluorescence after reaching a plateau, possibly because of the formation of insoluble amorphous species. We also carried out seeding experiments by adding 5% sonicated preaggregated α-syn fibrils to the ThT assay.
(§4) About 150 μl of 70 μM (1 mg/ml) α-syn, 40 μM ThT, and varying amounts of peptides (0, 0.06, 0.125, 0. 25, 0.375, and 0.5 mg/ml) were transferred in triplicates to a black COSTAR 96-well clear bottom plate (Nunc, Thermo Fisher Scientific), and including a 3 mm diameter glass bead (Glaswarenfabrik Karl Hecht GmbH & Co KG) per well to increase reproducibility ([100]). The plate was sealed with Crystal Clear sealing tape (Hampton Research) and incubated at 37 °C in a CLARIOstar Plus (BMG LABTECH) fluorescence plate reader. Fibrillation was carried out for ∼48 h with 300 rpm double orbital shaking between the readings for 372 s (excitation/emission: 448∕485 nm). Seeding experiments were performed using the same setting as for the fibrillation assay as described ([39]). Briefly, the experiments were done in triplicates in the presence of 0.05 mg/ml of α-syn fibril seeds (5% seeding) and 1 mg/ml of peptides in a solution of 1 mg/ml α-syn in 96-well plates.

αSOs = molecular target: T2, αSOs (Homo sapiens, UniProt P37840); test: Calcein release assay, αSOs together with peptides; type: biochemical; conditions: for Effect on vesicle permeabilization by αSOs: αSOs at calcein^50% (5.2 μg/ml)
T2 construct: made in house; host or cells: Escherichia coli BL21 (DE3); oligomers formed by shaking the monomer and isolated by SEC (Superose 6)
Description: αSOs show cytotoxic properties, which have been attributed to their membrane-disrupting ability ([69]). To examine the effect of peptides on membrane permeabilization by αSOs, we used a simple calcein release assay. αSOs, peptides, and aSO–peptide mixtures at 10^−6 to 10^−1 mg/ml peptide were added to calcein-loaded DOPG vesicle, and the extent of calcein release was monitored for 30 min by the increase in fluorescence as calcein leaks out upon membrane permeabilization, leading to dilution and the loss of self-quenching. The time-dependent calcein release data from DOPG vesicles ([70], [71]) in the presence of peptides, αSOs, and αSO–peptides are shown in Figs. S9 and S10. In order to allow easy comparison of all peptides, the calcein release versus concentration (peptides and αSOs) were plotted at the plateau point of release (Fig. 5, A–C). […] Figure 5D compares calcein release percentages of data represented in Figure 5, A and B at peptide concentrations between 0.001 and 0.1 mg/ml, where we see the largest extent of calcein release in general.
Calcein-filled vesicles of DOPG were prepared as described before ([38]). Briefly, DOPG was dissolved in PBS to […], in the presence of calcein at self-quenching concentrations (70 mM) and subjected to 10 freeze–thaw cycles between liquid nitrogen and a 50 °C water bath. After 21 times extrusion through a 100 nm filter, free calcein was separated from vesicles with a PD-10 desalting column (GE Healthcare). Vesicles were stored at 4 °C and used for calcein release assays within 24 h.
Calcein release was measured by mixing peptides and/or αSOs at a final concentration of 10^−6 to 10^−1 mg/ml and 5.2 μg/ml, respectively, in 148 μl with 2 μl of calcein vesicles, and were then loaded onto a 96-well plate (Nunc, Thermo Fischer Scientific) in triplicate. The plate was sealed with Crystal clear sealing tape (Hampton Research), and fluorescence was measured (excitation: 485 nm and emission: 520 nm) for 1 h at 37 °C every 2 min with a 2 s autoshake before each reading on a fluorescence plate reader (Tecan). Finally, 2 μl Triton X-100 (0.2% [v/v]) was added to lyse vesicles, and the maximal fluorescence signal was measured for 20 min under the same reading condition. Background fluorescence was subtracted, and the average signal of calcein release before addition of Triton X-100 (F), after treatment with Triton X-100 (Ft) and for the buffer control (F0) were determined, and calcein release percentage was calculated as follow (Equation 1):(1) CalceinRelease%(CR%)=(F−F0)/(Ft−F0)

SH-SY5Y cells [2] = conditions: αSOs with peptide, MTT
Description: as §1, §2

[3] = ThT monitoring of peptides alone for self-fibrillation; type: physicochemical; conditions: peptide alone (controls 1 mg/mL), 37 °C with shaking
Description: as §3
as §4, with “Seeding experiments were performed using the same setting as for the fibrillation assay as described ([39]). Briefly, the experiments were done in triplicates in the presence of 0.05 mg/ml of α-syn fibril seeds (5% seeding) and 1 mg/ml of peptides in a solution of 1 mg/ml α-syn in 96-well plates.” left out
[picture] […] The effect of the 9 peptides on α-syn fibrillation monitored by ThT fluorescence. […]

Compound	Toxicity to SH-SY5Y cells, in words (SH-SY5Y cells [1])	Cell viability (MTT) (SH-SY5Y cells [1])	Effect on α-syn aggregation (ThT), in words (α-syn)	Reduction of αSO-induced membrane permeability (αSOs; calcein-filled DOPG LUVs, peptide concentration not stated at the place)	Effect on cell survival in the presence of toxic αSOs, in words (SH-SY5Y cells [2])	ThT signal end level (α-syn)	Effect on vesicle permeabilization by αSOs (αSOs; peptide 0.01 and 0.1 mg/ml)	Self-fibrillation of the peptide alone [3]	Effect on vesicle permeabilization by αSOs (αSOs; peptide 10^−6 to 10^−1 mg/ml)
CC[C@H](C)[C@H](NC(=O)[C@H](Cc1ccccc1)NC(=O)[C@H](Cc1c[nH]c2ccccc12)NC(=O)[C@H](CCCNC(=N)N)NC(=O)[C@H](CC(N)=O)NC(=O)[C@@H](NC(=O)[C@H](CCC(N)=O)NC(=O)[C@H](CCCCN)NC(=O)[C@@H](N)CCSC)[C@@H](C)CC)C(=O)N[C@@H](CCCNC(=N)N)C(=O)N[C@@H](Cc1c[nH]c2ccccc12)C(=O)N[C@@H](CCC(N)=O)C(=O)N[C@@H](CCCCN)C(=O)N[C@@H](CCCCN)C(=O)N[C@@H](CCCNC(=N)N)C(=O)N[C@@H](CCCCN)C(=O)O [p249] (H-MKQINRWFIRWQKKRK-OH; N-terminus and C-terminus assumed)	slight toxicity	80%	slight aggregation-promoting effect	62%	did not show positive effects	–	–	–	–
RQIKIWFQNRRFKWKK [p222, penetratin with modulated hydrophobicity]	slight toxicity	–	slight aggregation-promoting effect	–	–	↑↑	increased vesicle permeabilization by αSOs	slight self-fibrillation tendencies	–
CC[C@H](C)[C@H](NC(=O)[C@H](Cc1c[nH]c2ccccc12)NC(=O)[C@H](CCCNC(=N)N)NC(=O)[C@H](Cc1c[nH]c2ccccc12)NC(=O)[C@H](CCCCN)NC(=O)[C@@H](NC(=O)[C@H](CCCCN)NC(=O)[C@H](CCC(N)=O)NC(=O)[C@@H](N)CC(N)=O)[C@@H](C)CC)C(=O)N[C@@H](CCC(N)=O)C(=O)N[C@@H](CCCNC(=N)N)C(=O)N[C@@H](Cc1ccccc1)C(=O)N[C@@H](CCCNC(=N)N)C(=O)N[C@@H](CCCCN)C(=O)N[C@@H](CCCCN)C(=O)N[C@@H](CCSC)C(=O)O [p235] (H-NQKIKWRWIQRFRKKM-OH; N-terminus and C-terminus assumed)	slight toxicity	–	slight aggregation-promoting effect	–	did not show positive effects	↑↑	–	–	–
CC(C)C[C@H](NC(=O)[C@H](Cc1c[nH]cn1)NC(=O)[C@H](CO)NC(=O)[C@H](CO)NC(=O)[C@H](C)NC(=O)[C@@H](N)CO)C(=O)N[C@@H](Cc1c[nH]cn1)C(=O)N[C@@H](Cc1c[nH]cn1)C(=O)NCC(=O)N[C@@H](Cc1c[nH]cn1)C(=O)N[C@@H](CO)C(=O)NCC(=O)NCC(=O)O [p168] (H-SASSHLHHGHSGG-OH)	–	94%	did not change the lag phase duration	–	–	–	–	–	failed to affect vesicle permeabilization by αSOs
